Source: patent publication US20220408725A1, “NEW DEFOLIANT AND APPLICATION THEREOF” (CHENGDU NEWSUN CROP SCIENCE CO., LTD., priority 2020, published 2022)

Tested on: pepper plants
Experiment: Pot spray test of defoliants on pepper plants (defoliation rate and fruit abscission rate)
Format: in vivo
Details: sprayed once
Experimental: 1 Test temperature and humidity
The defoliant listed in Table 1 is diluted to a certain extent for application. See Table 2 for the active constituents and dilution factor of the defoliant.
100X, 160X and 400X dilution of the C12-C14 fatty alcohol polyoxyethylene (5) ether refers to 100X, 160X and 400X dilution of the defoliant listed in Table 1 containing an active constituent of C12-C14 fatty alcohol polyoxyethylene (5) ether. 160X+1400X dilution of the C12-C14 fatty alcohol polyoxyethylene (5) ether+40% ethephon refers to 160X dilution of the defoliant listed in Table 1 containing an active constituent of C12-C14 fatty alcohol polyoxyethylene (5) ether and mixture with 40% ethephon subject to 1400X dilution, equivalent to that the mixed solution contains 0.5% of C12-C14 fatty alcohol polyoxyethylene (5) ether and 0.029% of ethephon.
A total of 7 treatment plots (including 1 for control group, with water) are arranged for the test, each including 5 pots.
Spray method. The test reagent is prepared according to the design requirements, and then applied once to each treatment plot by uniformly spraying it onto each pot as per 100 ml/m^2 of water consumption, while ensuring consistent spray onto each treatment plot and sufficient spray to cover the whole plant.
Investigating the total number of treated leaves and fruits of each plant before application of the reagent, and 3 days, 5 days, 7 days, 20 days and 25 days after the application, calculating the defoliation rate and observing the influence on fruits.
Adding fixedly 150 ml of water to each pot each time.
According to the investigated data, calculating the defoliation rate as per equation (1), in the unit of percentage (%), rounded to two decimal places.
(1) Defoliation rate (%)=(total number of treated leaves—number of remaining leaves)/total number of treated leaves.
(2) Corrected defoliation rate (%)=(defoliation rate of the treatment plot—defoliation rate of the control group)/(1-defoliation rate of the control group)*100.
If the defoliation rate of the control group <5%, correction is not required; otherwise, the result should be corrected as per equation (2).
(3) Fruit abscission rate (%)=(total number of treated fruits—number of remaining fruits)/total number of treated fruits.
The defoliation effect on the pepper plants is analyzed through comparison of the results of the pots before and after application of the reagent and the control group.

[1] = 100X dilution of Table 1 defoliant
[2] = 160X dilution of Table 1 defoliant
[3] = 400X dilution of Table 1 defoliant

In the case of “C12-C14 fatty alcohol polyoxyethylene (5) ether [Treatment 1]”, the “Defoliation rate 3 days after application” value (“Defoliation rate 3 days” for short) [1] is reported as 60.03%, the “Defoliation rate 5 days after application” value (“Defoliation rate 5 days” for short) [1] is reported as 78.72% and the “Defoliation rate 7 days after application” value (“Defoliation rate 7 days” for short) [1] is reported as 94.97%. For the same substance, the “Defoliation rate 20 days after application” value (“Defoliation rate 20 days” for short) [1] was 69.9%, the “Defoliation rate 25 days after application” value (from here on “Defoliation rate 25 days”) [1] was 18.42% and the “Defoliation rate 3 days” value [2] was 66.25%. The “Defoliation rate 5 days” value [2] was 70.63%, the “Defoliation rate 7 days” value [2] was 79.71% and the “Defoliation rate 20 days” value [2] was 73.64%. For the same substance, the “Defoliation rate 25 days” value [2] was 51.64%, the “Defoliation rate 3 days” value [3] was −1.46% and the “Defoliation rate 5 days” value [3] was 4.66%. The “Defoliation rate 7 days” value [3] was 14.5%, the “Defoliation rate 20 days” value [3] was 26.17% and the “Defoliation rate 25 days” value [3] was 17.95%.
In the case of “Full branched-chain C12 fatty alcohol polyoxyethylene (5) ether [Treatment 2]”, the “Defoliation rate 3 days” value [1] is reported as 72.15%, the “Defoliation rate 5 days” value [1] is reported as 87.4% and the “Defoliation rate 7 days” value [1] is reported as 100%. For the same substance, the “Defoliation rate 20 days” value [1] was 84.33%, the “Defoliation rate 25 days” value [1] was 75.8% and the “Defoliation rate 3 days” value [2] was 74.69%. For the same substance, the “Defoliation rate 5 days” value [2] was 85.12%, the “Defoliation rate 7 days” value [2] was 93.59% and the “Defoliation rate 20 days” value [2] was 72.18%. The “Defoliation rate 25 days” value [2] was 18.07%, the “Defoliation rate 3 days” value [3] was 5.58% and the “Defoliation rate 5 days” value [3] was 16.17%. For the same substance, the “Defoliation rate 7 days” value [3] was 21.83%, the “Defoliation rate 20 days” value [3] was 32.56% and the “Defoliation rate 25 days” value [3] was 7.88%.
In the case of “Isomeric C13 fatty alcohol polyoxyethylene (5) ether [Treatment 4]”, the “Defoliation rate 3 days” value [1] is reported as 23.88%, the “Defoliation rate 5 days” value [1] is reported as 40.42% and the “Defoliation rate 7 days” value [1] is reported as 66.7%. For the same substance, the “Defoliation rate 20 days” value [1] was 64.66%, the “Defoliation rate 25 days” value [1] was 16.35% and the “Defoliation rate 3 days” value [2] was 14.35%. The “Defoliation rate 5 days” value [2] was 16.59%, the “Defoliation rate 7 days” value [2] was 25.25% and the “Defoliation rate 20 days” value [2] was 27.79%. For the same substance, the “Defoliation rate 25 days” value [2] was 7.78%, the “Defoliation rate 3 days” value [3] was −3.15% and the “Defoliation rate 5 days” value [3] was −2.02%. The “Defoliation rate 7 days” value [3] was 5.81%, the “Defoliation rate 20 days” value [3] was 8.88% and the “Defoliation rate 25 days” value [3] was −2.16%.
In the case of “Straight-chain C12-14 fatty alcohol polyoxyethylene (5) ether [Treatment 3]”, the “Defoliation rate 3 days” value [1] is reported as 54.46%, the “Defoliation rate 5 days” value [1] is reported as 68.84% and the “Defoliation rate 7 days” value [1] is reported as 86.02%. The “Defoliation rate 20 days” value [1] was 69.02%, the “Defoliation rate 25 days” value [1] was 35.12% and the “Defoliation rate 3 days” value [2] was 38.84%. For the same substance, the “Defoliation rate 5 days” value [2] was 43.16%, the “Defoliation rate 7 days” value [2] was 64.73% and the “Defoliation rate 20 days” value [2] was 56.79%. The “Defoliation rate 25 days” value [2] was 35.09%, the “Defoliation rate 3 days” value [3] was 6.99% and the “Defoliation rate 5 days” value [3] was 10.84%. The “Defoliation rate 7 days” value [3] was 15.88%, the “Defoliation rate 20 days” value [3] was 27.07% and the “Defoliation rate 25 days” value [3] was 8.36%.
